Source: publication PMC7704495 (Pharmacological Reports, 2020)

Tests used:
[1] = molecular target: T1, CYP1A2 (Homo sapiens, UniProt P05177); assay: CYP1A2 inhibition, caffeine 3-N-demethylation in pooled human liver microsomes; assay type: in vitro ADME; details: for type of inhibition: Lineweaver–Burk; for Ki: caffeine 3-N-demethylation
T1 construct: purchased Corning (Woburn, USA); host or cells: baculovirus-infected insect cells
T1 sequence (P05177 1-516): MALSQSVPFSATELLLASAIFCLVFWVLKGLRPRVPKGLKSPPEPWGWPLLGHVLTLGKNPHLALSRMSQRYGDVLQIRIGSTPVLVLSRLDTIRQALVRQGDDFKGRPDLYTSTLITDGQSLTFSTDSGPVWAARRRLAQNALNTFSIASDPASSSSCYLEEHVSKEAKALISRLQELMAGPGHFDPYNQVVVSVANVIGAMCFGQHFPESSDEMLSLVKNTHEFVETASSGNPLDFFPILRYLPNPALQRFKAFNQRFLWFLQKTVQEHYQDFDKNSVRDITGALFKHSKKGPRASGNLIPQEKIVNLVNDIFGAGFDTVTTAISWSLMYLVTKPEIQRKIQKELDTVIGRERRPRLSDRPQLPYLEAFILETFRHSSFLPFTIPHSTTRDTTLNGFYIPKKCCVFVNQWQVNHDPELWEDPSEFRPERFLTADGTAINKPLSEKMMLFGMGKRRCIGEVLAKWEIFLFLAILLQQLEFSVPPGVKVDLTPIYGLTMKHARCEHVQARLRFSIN
Method: (§1) The following probe reactions were applied, according to the methods previously described: caffeine 3-N-demethylation for CYP1A2 (caffeine 200, 400 and 800 µM), diclofenac 4′-hydroxylation for CYP2C9 (diclofenac 5, 10, 25 µM), perazine N-demethylation for CYP2C19 (perazine 50, 100, 200 µM), bufuralol 1′-hydroxylation for CYP2D6 (bufuralol 10, 25, 50 µM), and testosterone 6β-hydroxylation for CYP3A4 (50, 100 and 200 µM). Incubation systems for CYP2C9, 2C19 and 3A4 contained: 50 mM TRIS/KCL buffer (pH = 7.4), NADPH generating system (1 mM NADP, 5 mM glucose 6-phosphate, 1.7 U/ml glucose 6-phosphate dehydrogenase, 1 mM EDTA and 3 mM MgCl2). Incubation mixture for CYP1A2 included: 0.15 M phosphate buffer (pH = 7.4) and 1 mM NADPH, and for CYP2D6: 0.1 M TRIS/KCL buffer (pH = 7.4), NADPH generating system (1.3 mM NADP, 3.3 mM glucose 6-phosphate, 1 U/ml glucose 6-phosphate dehydrogenase and 3.3 mM MgCl2). The appropriate concentrations of human liver microsomes (0.5 mg/ml for each reaction) or supersomes (50 pmol CYP/ml), various concentrations of a probe substrate in the absence or presence of neuroleptic (concentrations: 0.1, 0.5, 1, 5, 10 µM) were added, The final volume of the reaction mixture was 0.5 ml. The incubation time for supersomes was 30 min (for each reaction) and for liver microsomes: 30 min (diclofenac 4′-hydroxylation and bufuralol 1′-hydroxylation), 20 min (perazine N-demethylation and testosterone 6β-hydroxylation) or 50 min (caffeine 3-N-demethylation). After the reactions had been stopped, the concentrations of specific substrates and their metabolites formed in liver microsomes or supersomes were assessed by the HPLC method with UV detection (or fluorimetric detection for CYP2D6), as described previously.
(§2) Kinetic parameters (Km, Vmax, Ki) describing the course of CYP-specific reactions in liver microsomes or supersomes were obtained using the Michaelis–Menten approach and a non-linear regression analysis (Program Sigma Plot 12.3 Enzyme Kinetics).

[2] = molecular target: T1, CYP1A2; assay: CYP1A2 inhibition, caffeine 3-N-demethylation in cDNA-expressed CYP1A2 (supersomes); assay type: in vitro ADME; details: for type of inhibition: Lineweaver–Burk; for Ki: caffeine 3-N-demethylation
Method: as §1, §2

[3] = molecular target: T2, CYP2C9 (Homo sapiens, UniProt P11712); assay: CYP2C9 inhibition, diclofenac 4′-hydroxylation in pooled human liver microsomes; assay type: in vitro ADME; details: for type of inhibition: Lineweaver–Burk
T2 construct: purchased Corning (Woburn, USA); host or cells: baculovirus-infected insect cells
T2 sequence (P11712 whole entry): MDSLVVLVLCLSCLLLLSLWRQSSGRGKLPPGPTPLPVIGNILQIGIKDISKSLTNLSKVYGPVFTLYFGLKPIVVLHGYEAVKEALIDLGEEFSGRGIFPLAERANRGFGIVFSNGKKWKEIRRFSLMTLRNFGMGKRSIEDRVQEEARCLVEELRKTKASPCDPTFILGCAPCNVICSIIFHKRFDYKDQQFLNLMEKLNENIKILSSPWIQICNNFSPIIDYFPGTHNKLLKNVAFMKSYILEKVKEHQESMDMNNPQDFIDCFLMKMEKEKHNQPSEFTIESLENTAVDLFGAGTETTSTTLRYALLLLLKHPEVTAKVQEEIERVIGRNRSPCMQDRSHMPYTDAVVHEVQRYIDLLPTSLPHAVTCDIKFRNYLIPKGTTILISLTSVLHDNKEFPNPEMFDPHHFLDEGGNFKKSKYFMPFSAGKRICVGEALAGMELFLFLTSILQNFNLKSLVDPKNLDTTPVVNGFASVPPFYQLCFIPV
Method: as §1, §2

[4] = molecular target: T2, CYP2C9; assay: CYP2C9 inhibition, diclofenac 4′-hydroxylation in cDNA-expressed CYP2C9 (supersomes); assay type: in vitro ADME; details: for type of inhibition: Lineweaver–Burk
Method: as §1, §2

[5] = molecular target: T3, CYP2C19 (Homo sapiens, UniProt P33261); assay: CYP2C19 inhibition, perazine N-demethylation in cDNA-expressed CYP2C19 (supersomes); assay type: in vitro ADME; details: for type of inhibition: Lineweaver–Burk; for Ki: perazine N-demethylation
T3 sequence (P33261 whole entry): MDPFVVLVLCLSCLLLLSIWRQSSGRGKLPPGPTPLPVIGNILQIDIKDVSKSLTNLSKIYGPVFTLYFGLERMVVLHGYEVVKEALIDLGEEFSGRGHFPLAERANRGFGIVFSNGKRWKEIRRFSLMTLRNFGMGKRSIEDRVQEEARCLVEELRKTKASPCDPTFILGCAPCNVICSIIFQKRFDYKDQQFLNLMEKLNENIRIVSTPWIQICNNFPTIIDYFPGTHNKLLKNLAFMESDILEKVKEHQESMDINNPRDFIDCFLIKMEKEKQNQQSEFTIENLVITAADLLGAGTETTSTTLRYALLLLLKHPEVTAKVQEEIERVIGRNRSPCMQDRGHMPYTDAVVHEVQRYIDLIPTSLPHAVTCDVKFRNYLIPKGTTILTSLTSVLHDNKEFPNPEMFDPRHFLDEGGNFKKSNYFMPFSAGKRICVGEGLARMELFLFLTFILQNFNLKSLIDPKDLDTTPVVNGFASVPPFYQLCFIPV
Method: as §1, §2

[6] = molecular target: T4, CYP2D6 (Homo sapiens, UniProt P10635); assay: CYP2D6 inhibition, bufuralol 1′-hydroxylation in cDNA-expressed CYP2D6 (supersomes); assay type: in vitro ADME; details: for type of inhibition: Lineweaver–Burk; for Ki: bufuralol 1′-hydroxylation
T4 sequence (P10635 whole entry): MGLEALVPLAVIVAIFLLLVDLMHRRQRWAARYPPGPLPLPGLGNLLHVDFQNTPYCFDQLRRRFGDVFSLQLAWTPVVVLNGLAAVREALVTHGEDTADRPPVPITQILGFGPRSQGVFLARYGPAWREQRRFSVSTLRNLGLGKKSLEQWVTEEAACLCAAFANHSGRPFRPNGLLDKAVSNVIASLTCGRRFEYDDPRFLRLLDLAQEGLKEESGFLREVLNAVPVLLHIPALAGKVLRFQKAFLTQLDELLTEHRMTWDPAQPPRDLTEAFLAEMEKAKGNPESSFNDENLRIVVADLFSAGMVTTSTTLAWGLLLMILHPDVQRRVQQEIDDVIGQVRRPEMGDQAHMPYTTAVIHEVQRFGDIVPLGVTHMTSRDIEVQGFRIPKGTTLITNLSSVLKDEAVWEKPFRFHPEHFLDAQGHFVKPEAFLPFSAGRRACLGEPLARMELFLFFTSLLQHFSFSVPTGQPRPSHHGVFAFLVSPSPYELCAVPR
Method: as §1, §2

[7] = molecular target: T5, CYP3A4 (Homo sapiens, UniProt P08684); assay: CYP3A4 inhibition, testosterone 6β-hydroxylation in pooled human liver microsomes
T5 sequence (P08684 whole entry): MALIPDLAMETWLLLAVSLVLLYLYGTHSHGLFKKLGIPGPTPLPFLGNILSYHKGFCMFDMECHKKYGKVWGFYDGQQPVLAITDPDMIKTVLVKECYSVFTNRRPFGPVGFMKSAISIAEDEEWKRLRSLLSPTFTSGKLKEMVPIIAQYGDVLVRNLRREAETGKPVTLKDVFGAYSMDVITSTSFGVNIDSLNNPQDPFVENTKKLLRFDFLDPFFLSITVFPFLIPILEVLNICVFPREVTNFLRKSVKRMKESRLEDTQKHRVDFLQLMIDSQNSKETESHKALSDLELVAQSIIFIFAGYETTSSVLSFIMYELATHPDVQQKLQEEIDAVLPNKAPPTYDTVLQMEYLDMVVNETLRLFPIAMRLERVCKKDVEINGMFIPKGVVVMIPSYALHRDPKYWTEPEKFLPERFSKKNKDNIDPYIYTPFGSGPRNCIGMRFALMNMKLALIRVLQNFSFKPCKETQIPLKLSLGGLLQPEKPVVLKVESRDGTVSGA
Method: as §1, §2

[8] = molecular target: T5, CYP3A4; assay: CYP3A4 inhibition, testosterone 6β-hydroxylation in cDNA-expressed CYP3A4 (supersomes)
Method: as §1, §2

[9] = patients; cited from earlier work
[10] = lipophilicity; cited from earlier work
[11] = molecular target: T3, CYP2C19; assay: CYP2C19 inhibition, perazine N-demethylation in pooled human liver microsomes; assay type: in vitro ADME; set-up: a Human liver microsomes; tissue Corning (Woburn, USA); host or cells: pooled human liver microsomes; details: for type of inhibition: Lineweaver–Burk; for Ki: perazine N-demethylation
Method: as §1, §2

[12] = molecular target: T4, CYP2D6; assay: CYP2D6 inhibition, bufuralol 1′-hydroxylation in pooled human liver microsomes; assay type: in vitro ADME; set-up: a Human liver microsomes; tissue Corning (Woburn, USA); host or cells: pooled human liver microsomes; details: for type of inhibition: Lineweaver–Burk; for Ki: bufuralol 1′-hydroxylation
Method: as §1, §2

type of inhibition [1]	Ki [1]	type of inhibition [2]	Ki [2]	type of inhibition [5]	Ki [5]	type of inhibition [6]	Ki [6]	type of inhibition [7]	type of inhibition ([7]; human, 20 min, pH 7.4)	type of inhibition [8]	type of inhibition ([8]; human, 30 min, pH 7.4)	type of inhibition [11]	Ki [11]	type of inhibition [12]	Ki [12]	Structure (SMILES)	therapeutic plasma concentration [9]	log P [10]	also measured
Mixed	45 µM	Mixed	31 µM	Mixed	32 µM	Competitive	10 µM	noncompetitive	Noncompetitive	noncompetitive	Noncompetitive	Mixed	6.5 µM	Competitive	2.9 µM	COc1cc(C(C)=O)ccc1OCCCN1CCC(c2noc3cc(F)ccc23)CC1 [Iloperidone, iloperidone]	up to 0.2 μM	4.43	type of inhibition ([1]; listed as iloperidone): mixed; type of inhibition ([2]; listed as iloperidone): mixed; Ki at 30 min ([3]; human, pooled human liver microsomes, pH 7.4, probe diclofenac (4′-hydroxylation), CYP2C9, liver microsomes, diclofenac 4′-hydroxylation): > 10 µM; effect on the activity of CYP2C9 ([3]; liver microsomes, neuroleptic 0.1-10 µM): did not affect; Ki at 30 min ([4]; human, pH 7.4, probe diclofenac (4′-hydroxylation), CYP2C9, supersomes, diclofenac 4′-hydroxylation): > 10 µM; effect on the activity of CYP2C9 ([4]; supersomes, neuroleptic 0.1-10 µM): did not affect; type of inhibition ([5]; listed as iloperidone): mixed; type of inhibition ([6]; listed as iloperidone): competitive; type of inhibition ([11]; listed as iloperidone): mixed; type of inhibition ([12]; listed as iloperidone): competitive
Mixed	12.6 µM	Mixed	15.5 µM	Mixed	18.4 µM	Competitive	85 µM	competitive	Competitive	competitive	Competitive	Mixed	18 µM	Competitive	37.5 µM	O=C1[C@@H]2[C@H]3CC[C@H](C3)[C@@H]2C(=O)N1C[C@@H]1CCCC[C@H]1CN1CCN(c2nsc3ccccc23)CC1 [Lurasidone, lurasidone]	≤ 1.2 µM	5.6	type of inhibition ([1]; listed as lurasidone): mixed; type of inhibition ([2]; listed as lurasidone): mixed; type of inhibition ([3]; CYP2C9, liver microsomes): Mixed; type of inhibition ([3]; CYP2C9, liver microsomes, listed as lurasidone): mixed; Ki ([3]; CYP2C9, liver microsomes, diclofenac 4′-hydroxylation): 18 µM; type of inhibition ([4]; CYP2C9, supersomes): Mixed; type of inhibition ([4]; CYP2C9, supersomes, listed as lurasidone): mixed; Ki ([4]; CYP2C9, supersomes, diclofenac 4′-hydroxylation): 3.5 µM; type of inhibition ([5]; listed as lurasidone): mixed; type of inhibition ([6]; listed as lurasidone): competitive; Ki [7]: 29.4 µM; Ki [8]: 9.1 µM; type of inhibition ([11]; listed as lurasidone): mixed; type of inhibition ([12]; listed as lurasidone): competitive
